In patent publication US8975291B2, “Indoles” (GlaxoSmithKline LLC, priority 2010, dated 2015):
pIC50: −log10 of the molar value.

biological target: T1, EZH2 within the PRC2 complex (Homo sapiens, UniProt Q15910); assay: EZH2 methyltransferase scintillation proximity assay (SPA) with PRC2 complex; assay type: biochemical; conditions: 3H-SAM methyl transfer to Histone H3 of HeLa mononucleosomes; read-out: EZH2 pIC50 (converted)
T1 construct: FLAG; made in house; host or cells: Sf9 cells
Experimental: Compounds contained herein were evaluated for their ability to inhibit the methyltransferase activity of EZH2 within the PRC2 complex. Human PRC2 complex was prepared by co-expressing each of the 5 member proteins (FLAG-EZH2, EED, SUZ12, RbAp48, AEBP2) in Sf9 cells followed by co-purification. Enzyme activity was measured in a scintillation proximity assay (SPA) where a tritiated methyl group is transferred from 3H-SAM to a lysine residue on Histone H3 of a mononucleosome, purified from HeLa cells. Mononucleosomes were captured on SPA beads and the resulting signal is read on a ViewLux plate reader.
Part A. Compound Preparation
• 1. Prepare 10 mM stock of compounds from solid in 100% DMSO. • 2. Set up an 11-point serial dilution (1:3 dilution, top concentration 10 mM) in 100% DMSO for each test compound in a 384 well plate leaving columns 6 and 18 for DMSO controls. • 3. Dispense […] of compound from the dilution plate into reaction plates (Grenier Bio-One, 384-well, Cat #784075). Part B. Reagent Preparation Prepare the following solutions: • 1. 50 mM Tris-HCl, pH 8: Per 1 L of base buffer, combine 1 M Tris-HCl, pH 8 (50 mL) and distilled water (950 mL). • 2. […] 2× Enzyme Solution: Per 10 mL of 2× Enzyme Solution, combine 1× Assay Buffer and PRC2 complex to provide a final enzyme concentration of 10 nM. • 4. SPA Bead Suspension: Per 1 mL of SPA Bead Suspension, combine PS-PEI coated LEADSeeker beads (40 mg) and ddH2O (1 mL) to provide a final concentration of 40 mg/mL. • 5. 2× Substrate Solution: Per 10 mL of 2× Substrate Solution, combine 1× Assay Buffer (9728.55 uL), 800 ug/mL mononucleosomes (125 uL), 1 mM cold SAM (4 uL), and 7.02 uM 3H-SAM (142.45 uL; 0.55 mCi/mL) to provide a final concentration of 5 ug/mL nucleosomes, 0.2 uM cold SAM, and 0.05 uM 3H-SAM. • 6. 2.67× Quench/Bead Mixture: Per 10 mL of 2.67× Quench/Bead Mixture, combine ddH2O (9358 uL), 10 mM cold SAM (267 uL), 40 mg/mL Bead Suspension (375 uL) to provide a final concentration of 100 uM cold SAM and 0.5 mg/mL SPA beads. Part C. Assay Reaction in 384-well Grenier Bio-One Plates Compound Addition • 1. Dispense […] of 100× Compound to test wells (as noted above). • 2. Dispense […] of 100% DMSO to columns 6 & 18 for high and low controls, respectively. Assay • 1. […] Dispense 5 uL/well of 2× Enzyme Solution to columns 1-17, 19-24. • 3. Spin assay plates for ˜1 minute at 500 rpm. • 4. Stack the assay plates, covering the top plate. • 5. Incubate the compound/DMSO with the enzyme for 30 minutes at room temperature. • 6. Dispense 5 uL/well of 2× Substrate Solution to columns 1-24. • 7. Spin assay plates for ˜1 minute at 500 rpm. • 8. Stack the assay plates, covering the top plate. • 9. Incubate the assay plates at room temperature for 1 hour. Quench/Bead Addition • 1. Dispense 5 uL/well of the 3× Quench/Bead Mixture to columns 1-24. • 2. Seal the top of each assay plate with adhesive TopSeal. • 3. Spin assay plates for ˜1 minute at 500 rpm. • 4. Equilibrate the plates for >20 min. Read Plates • 1. Read the assay plates on the Viewlux Plate Reader utilizing the 613 nm emission filter with a 300 s read time. Reagent addition can be done manually or with automated liquid handler. • The final DMSO concentration in this assay is 1%. • The positive control is in column 6; negative control is in column 18. • Final starting concentration of compounds is 100 μM. Part D. Data Analysis
Percent inhibition was calculated relative to the DMSO control for each compound concentration and the resulting values were fit using standard IC50 fitting parameters within the ABASE data fitting software package.

T1 sequence (Q15910 whole entry): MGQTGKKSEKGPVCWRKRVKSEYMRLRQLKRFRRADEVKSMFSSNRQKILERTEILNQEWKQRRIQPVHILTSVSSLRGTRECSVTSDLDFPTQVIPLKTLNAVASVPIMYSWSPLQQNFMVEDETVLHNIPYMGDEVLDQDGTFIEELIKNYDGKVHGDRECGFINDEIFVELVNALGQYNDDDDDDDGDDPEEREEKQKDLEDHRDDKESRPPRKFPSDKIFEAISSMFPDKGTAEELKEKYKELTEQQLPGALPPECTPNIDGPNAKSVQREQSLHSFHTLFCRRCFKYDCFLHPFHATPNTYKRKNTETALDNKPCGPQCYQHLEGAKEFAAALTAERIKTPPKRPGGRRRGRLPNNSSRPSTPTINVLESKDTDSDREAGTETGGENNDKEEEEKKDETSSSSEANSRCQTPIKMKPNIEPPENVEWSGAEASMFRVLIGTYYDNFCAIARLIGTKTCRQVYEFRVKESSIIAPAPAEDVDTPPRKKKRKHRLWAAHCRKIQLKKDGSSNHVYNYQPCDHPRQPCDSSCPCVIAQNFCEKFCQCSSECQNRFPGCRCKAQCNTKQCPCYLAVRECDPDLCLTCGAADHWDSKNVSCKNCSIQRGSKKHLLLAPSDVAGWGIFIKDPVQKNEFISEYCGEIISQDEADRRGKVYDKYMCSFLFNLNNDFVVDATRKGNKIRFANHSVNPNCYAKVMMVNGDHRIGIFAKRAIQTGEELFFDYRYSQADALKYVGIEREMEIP
T1 sequence (O75530 whole entry partner): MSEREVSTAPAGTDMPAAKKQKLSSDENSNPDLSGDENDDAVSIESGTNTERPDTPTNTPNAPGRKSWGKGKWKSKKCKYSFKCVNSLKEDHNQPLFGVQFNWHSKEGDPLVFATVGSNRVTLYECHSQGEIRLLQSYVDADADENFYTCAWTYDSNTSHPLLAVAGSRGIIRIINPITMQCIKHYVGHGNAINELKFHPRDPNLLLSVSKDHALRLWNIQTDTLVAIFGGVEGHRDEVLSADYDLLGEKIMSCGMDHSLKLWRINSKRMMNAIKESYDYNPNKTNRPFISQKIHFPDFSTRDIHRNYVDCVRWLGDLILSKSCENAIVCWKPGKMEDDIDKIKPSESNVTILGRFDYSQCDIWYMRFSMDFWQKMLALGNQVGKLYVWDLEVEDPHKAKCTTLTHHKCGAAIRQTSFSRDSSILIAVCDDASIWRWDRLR
T1 sequence (Q15022 whole entry partner): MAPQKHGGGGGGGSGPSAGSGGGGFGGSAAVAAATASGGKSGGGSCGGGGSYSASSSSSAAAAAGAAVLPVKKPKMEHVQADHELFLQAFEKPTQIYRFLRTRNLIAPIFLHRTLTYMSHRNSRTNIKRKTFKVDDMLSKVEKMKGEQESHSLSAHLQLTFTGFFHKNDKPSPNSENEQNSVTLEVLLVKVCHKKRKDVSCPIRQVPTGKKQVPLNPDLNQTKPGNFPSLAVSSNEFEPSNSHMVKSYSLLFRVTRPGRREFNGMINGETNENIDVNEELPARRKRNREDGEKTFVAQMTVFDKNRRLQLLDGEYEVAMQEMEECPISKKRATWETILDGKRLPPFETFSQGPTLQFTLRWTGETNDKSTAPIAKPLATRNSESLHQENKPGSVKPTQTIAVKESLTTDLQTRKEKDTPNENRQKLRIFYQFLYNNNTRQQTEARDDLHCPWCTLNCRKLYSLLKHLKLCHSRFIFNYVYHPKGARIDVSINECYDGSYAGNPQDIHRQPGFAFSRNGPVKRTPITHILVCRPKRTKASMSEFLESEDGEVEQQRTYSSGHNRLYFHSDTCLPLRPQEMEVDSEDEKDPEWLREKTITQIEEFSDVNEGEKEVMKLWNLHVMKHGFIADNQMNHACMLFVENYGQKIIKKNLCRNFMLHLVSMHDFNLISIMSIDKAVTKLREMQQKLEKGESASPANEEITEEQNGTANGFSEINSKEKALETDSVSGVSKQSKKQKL
T1 sequence (Q09028 whole entry partner): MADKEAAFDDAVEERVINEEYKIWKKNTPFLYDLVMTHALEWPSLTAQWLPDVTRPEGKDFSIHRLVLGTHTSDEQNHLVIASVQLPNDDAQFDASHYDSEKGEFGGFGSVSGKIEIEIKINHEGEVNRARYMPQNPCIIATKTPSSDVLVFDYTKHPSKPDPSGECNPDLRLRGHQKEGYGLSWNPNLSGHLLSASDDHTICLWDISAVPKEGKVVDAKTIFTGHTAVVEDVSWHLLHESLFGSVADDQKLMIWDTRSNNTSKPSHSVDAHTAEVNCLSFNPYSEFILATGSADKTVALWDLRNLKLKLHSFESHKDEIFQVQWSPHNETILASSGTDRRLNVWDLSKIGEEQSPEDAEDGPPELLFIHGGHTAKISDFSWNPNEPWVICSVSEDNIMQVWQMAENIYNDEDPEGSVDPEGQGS
T1 sequence (Q6ZN18 whole entry partner): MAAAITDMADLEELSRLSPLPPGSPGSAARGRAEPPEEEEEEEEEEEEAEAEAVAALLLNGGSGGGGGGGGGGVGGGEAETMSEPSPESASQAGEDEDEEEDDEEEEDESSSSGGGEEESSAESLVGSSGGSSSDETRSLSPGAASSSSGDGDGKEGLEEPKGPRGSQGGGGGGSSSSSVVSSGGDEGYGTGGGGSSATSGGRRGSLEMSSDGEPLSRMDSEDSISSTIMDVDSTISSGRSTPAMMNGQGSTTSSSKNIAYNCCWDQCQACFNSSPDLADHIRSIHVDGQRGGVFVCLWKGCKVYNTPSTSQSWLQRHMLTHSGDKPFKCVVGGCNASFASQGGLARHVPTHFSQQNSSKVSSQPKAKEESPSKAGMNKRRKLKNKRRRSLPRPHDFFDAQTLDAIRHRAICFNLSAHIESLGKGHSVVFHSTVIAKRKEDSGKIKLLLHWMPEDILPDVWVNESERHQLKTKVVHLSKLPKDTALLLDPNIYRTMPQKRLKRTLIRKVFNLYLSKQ

| IC50 [nM] | SMILES |
| --- | --- |
| 288 | Cc1cc(C)c(CNC(=O)c2cc(C3COC3)cc3c2c(C)cn3C(C)C)c(=O)[nH]1 [Example 360, N-[(4,6-dimethyl-2-oxo-1,2-dihydro-3-pyridinyl)methyl]-3-methyl-1-(1-methylethyl)-6-(3-oxetanyl)-1H-indole-4-carboxamide] |
| 36.3 | Cc1cc(C)c(CNC(=O)c2cc(-c3ccc(CN4C[C@@H](C)O[C@@H](C)C4)nc3)cc3c2c(C)cn3C(C)C)c(=O)[nH]1 [Example 348, 6-(6-{[(2R,6S)-2,6-dimethyl-4-morpholinyl]methyl}-3-pyridinyl)-N-[(4,6-dimethyl-2-oxo-1,2-dihydro-3-pyridinyl)methyl]-3-methyl-1-(1-methylethyl)-1H-indole-4-carboxamide] |
| 58.9 | Cc1cc(C)c(CNC(=O)c2cc(-c3ccc(CO)nc3)cc3c2c(C)cn3C(C)C)c(=O)[nH]1 [Example 359, N-[(4,6-dimethyl-2-oxo-1,2-dihydro-3-pyridinyl)methyl]-6-[6-(hydroxymethyl)-3-pyridinyl]-3-methyl-1-(1-methylethyl)-1H-indole-4-carboxamide] |
| 22.9 | Cc1cc(C)c(CNC(=O)c2cc(-c3ccc(CN4CCOCC4)nc3)cc3c2c(C)cn3C(C)C)c(=O)[nH]1 [Example 350, N-[(4,6-dimethyl-2-oxo-1,2-dihydro-3-pyridinyl)methyl]-3-methyl-1-(1-methylethyl)-6-[6-(4-morpholinylmethyl)-3-pyridinyl]-1H-indole-4-carboxamide] |
| 468 | Cc1cc(C)c(CNC(=O)c2cc(B(O)O)cc3c2c(C)cn3C(C)C)c(=O)[nH]1 [Example 358, [4-({[(4,6-dimethyl-2-oxo-1,2-dihydro-3-pyridinyl)methyl]amino)carbonyl)-3-methyl-1-(1-methylethyl)-1H-indol-6-yl]boronic acid] |
| 55 | Cc1cc(C)c(CNC(=O)c2cc(Nc3ccc(N4CCN(C)CC4)nc3)cc3c2c(C)cn3C(C)C)c(=O)[nH]1 [Example 361, N-[(4,6-dimethyl-2-oxo-1,2-dihydro-3-pyridinyl)methyl]-3-methyl-1-(1-methylethyl)-6-{[6-(4-methyl-1-piperazinyl)-3-pyridinyl]amino)-1H-indole-4-carboxamide] |
| 129 | Cc1cc(C)c(CNC(=O)c2cc(NC(=O)N3CCN(C)CC3)cc3c2c(C)cn3C(C)C)c(=O)[nH]1 [Example 362, N-[(4,6-dimethyl-2-oxo-1,2-dihydro-3-pyridinyl)methyl]-3-methyl-1-(1-methylethyl)-6-{[(4-methyl-1-piperazinyl)carbonyl]amino}-1H-indole-4-carboxamide] |
| 25.1 | Cc1cc(C)c(CNC(=O)c2cc(-c3ccc(CN4CCN(C)CC4)nc3)cc3c2c(C)cn3C(C)C)c(=O)[nH]1 [Example 349, N-[(4,6-dimethyl-2-oxo-1,2-dihydro-3-pyridinyl)methyl]-3-methyl-1-(1-methylethyl)-6-{6-[(4-methyl-1-piperazinyl)methyl]-3-pyridinyl}-1H-indole-4-carboxamide] |

same assay, conditions: EZH2 inhibition, foregoing or analogous assay; unit inferred; read-out: IC50

| pIC50 | SMILES |
| --- | --- |
| 8.52 | Cc1cc(C)c(CNC(=O)c2cc(-c3ccc(N4CCNCC4)nc3)cc3c2c(C)cn3C2CCCC2)c(=O)[nH]1 [Ex 275, 1-cyclopentyl-N-((4,6-dimethyl-2-oxo-1,2-dihydropyridin-3-yl)methyl)-3-methyl-6-(6-(piperazin-1-yl)pyridin-3-yl)-1H-indole-4-carboxamide] |
| 6.00 | Cc1cc(Cn2cccn2)c(CNC(=O)c2cc(Br)cc3c2c(C)cn3C(C)C)c(=O)[nH]1 [Ex 234, 6-bromo-3-methyl-1-(1-methylethyl)-N-{[6-methyl-2-oxo-4-(1H-pyrazol-1-ylmethyl)-1,2-dihydro-3-pyridinyl]methyl}-1H-indole-4-carboxamide] |
| 7.85 | Cc1cc(C)c(CNC(=O)c2cc(-c3ccc4[nH]cnc4c3)cc3c2c(C)cn3C(C)C)c(=O)[nH]1 [Ex 211, 6-(1H-benzimidazol-5-yl)-N-[(4,6-dimethyl-2-oxo-1,2-dihydro-3-pyridinyl)methyl]-3-methyl-1-(1-methylethyl)-1H-indole-4-carboxamide] |
| 7.74 | Cc1cc(C)c(CNC(=O)c2cc(-c3ccc(OCCN(C)C)cc3)cc3c2c(C)cn3C(C)C)c(=O)[nH]1 [Ex 174, 6-(4-{[2-(dimethylamino)ethyl]oxy}phenyl)-N-[(4,6-dimethyl-2-oxo-1,2-dihydro-3-pyridinyl)methyl]-3-methyl-1-(1-methylethyl)-1H-indole-4-carboxamide] |
| 8.00 | CC[C@H](C)n1cc(C)c2c(C(=O)NCc3c(C)cc(C)[nH]c3=O)cc(-c3cccc(CN(C)C)c3)cc21 [Ex 273, 6-{3-[(Dimethylamino)methyl]phenyl}-N-[(4,6-dimethyl-2-oxo-1,2-dihydro-3-pyridinyl)methyl]-3-methyl-1-[(1S)-1-methylpropyl]-1H-indole-4-carboxamide] |
| 7.89 | CCC(C)n1cc(C)c2c(C(=O)NCc3c(C)cc(C)[nH]c3=O)cc(-c3cccc(CN(C)C)c3)cc21 (centres unmarked) [Ex 272, 1-(sec-Butyl)-N-((4,6-dimethyl-2-oxo-1,2-dihydropyridin-3-yl)methyl)-6-(3-((dimethylamino)methyl)phenyl)-3-methyl-1H-indole-4-carboxamide] |
| 7.40 | CC[C@@H](C)n1cc(C)c2c(C(=O)NCc3c(C)cc(C)[nH]c3=O)cc(Br)cc21 [Ex 268, (R)-6-Bromo-1-(sec-butyl)-N-((4,6-dimethyl-2-oxo-1,2-dihydropyridin-3-yl)methyl)-3-methyl-1H-indole-4-carboxamide] |
| 7.70 | CC[C@H](C)n1cc(C)c2c(C(=O)NCc3c(C)cc(C)[nH]c3=O)cc(Br)cc21 [Ex 267, (S)-6-bromo-1-(sec-butyl)-N-((4,6-dimethyl-2-oxo-1,2-dihydropyridin-3-yl)methyl)-3-methyl-1H-indole-4-carboxamide] |
| 8.05 | Cc1cc(C)c(CNC(=O)c2cc(-c3ccc4c(N)n[nH]c4c3)cc3c2c(C)cn3C(C)C)c(=O)[nH]1 [Ex 212, 6-(3-amino-1H-indazol-6-yl)-N-[(4,6-dimethyl-2-oxo-1,2-dihydro-3-pyridinyl)methyl]-3-methyl-1-(1-methylethyl)-1H-indole-4-carboxamide] |
| 7.60 | CCC(C)n1cc(C)c2c(C(=O)NCc3c(C)cc(C)[nH]c3=O)cc(Br)cc21 (centres unmarked) [Ex 266, 6-bromo-1-(sec-butyl)-N-((4,6-dimethyl-2-oxo-1,2-dihydropyridin-3-yl)methyl)-3-methyl-1H-indole-4-carboxamide] |
| 7.54 | Cc1cc(C)c(CNC(=O)c2cc(-c3cc4[nH]ncc4cn3)cc3c2c(C)cn3C(C)C)c(=O)[nH]1 [Ex 244, N-((4,6-dimethyl-2-oxo-1,2-dihydropyridin-3-yl)methyl)-1-isopropyl-3-methyl-6-(1H-pyrazolo[4,3-c]pyridin-6-yl)-1H-indole-4-carboxamide] |
| 5.74 | Cc1cc(C)c(CNC(=O)c2cc(Br)cc3c2c(C)cn3CC(C)N(C)C)c(=O)[nH]1 (centres unmarked) [Ex 78, 6-bromo-N-((4,6-dimethyl-2-oxo-1,2-dihydropyridin-3-yl)methyl)-1-(2-(dimethylamino)propyl)-3-methyl-1H-indole-4-carboxamide] |
